This passage reports inhibition, IC50 and Selectivity index results from patent US9115145B2, “Tocotrienol derivatives and associated methods” (FIRST TECH INTERNATIONAL LIMITED, priority 2011, dated 2015).

Where two headings read alike, the source gives them in different places.

Test [1] deals with MDA-MB-231 human breast cancer cells. The test is described as follows: Wound-healing assay (cell migration). The conditions noted are these: Homo sapiens; for inhibition at 5 µM: MDA-MB-231, 24 h, wound-healing assay; for IC50: MDA-MB-231, wound-healing assay, dose response, read-out: IC50 antimigratory activity. The class given is cell-based. How it is done:
The highly metastatic human breast cancer MDA-MB-231 cells were cultured in RPMI 1640 medium containing 10 mM HEPES, 4 mM L-glutamine, 10% fetal bovine serum, penicillin (100 IU/mL), and streptomycin (50 μg/mL), and grown in a 5% CO2 atmosphere at 37° C. Cells were plated onto sterile 24-well and allowed to recover for a confluent cell monolayer formed in each well (>95% confluence). Wounds were then inflicted to each cell monolayer using a sterile 200 μL pipette tip. Media were removed, cells monolayers were washed twice with PBS, and then fresh media containing test compounds were added to each well. Test compounds were prepared in DMSO at 5 μM concentration and added to the plates, each in triplicate using DMSO as negative control. The incubation was carried out for 24 h under serum-starved conditions, after which media was removed and cells were fixed and stained using a staining composition sold under the trade name Diff Quick (Dade Behring Diagnostics, Aguada, Puerto Rico). The stain comprised a fixative reagent containing 1.8 mg/L triarylmethane dye in methyl alcohol; a first solution of 1 g/L xanthene dye, buffer, and sodium azide (0.01%) as preservative; and a second solution of 1.25 g/L Thiazine dye mixture (0.625 g/L azure A and 0.625 g/L methylene blue) and buffer. The number of cells migrated on the scratched wound were counted under the microscope in three or more randomly selected fields (magnification: 400×). Final results are expressed as mean±SEM per 400× field. The wound-healing assay is a simple method for the study of directional cell migration in vitro.
Compounds were tested for their ability to inhibit the migration of the highly metastatic MDA-MB-231 human breast cancer cells in the wound-healing assay using the procedure described above. Compounds 6, 10, 12, 13, 24, 26, 27, and 29 inhibited the migration of more than 50% of the human breast cancer cells MDA-MB-231 in the wound healing assay at 5 μM dose. […] The antimigratory activity of tocotrienols may be enhanced by a terminal aromatic functionality. The presence of electron withdrawing group, such as nitro in Compound 29, may eliminate the antiproliferative activity yet retain the antimigratory activity of the compound. While the electron donating groups, such as OH and OMe found in Compounds 23 and 26, respectively, retained both antiproliferative and antimigratory activities.
Utilizing similar procedures follow-up testing was conducted on a variety of compounds using a range of compound concentrations. The results of follow-up antimigratory testing are shown in FIG. 35B and Table III below with IC50 values calculated using statistical software.

The test system of test [2] is MCF 10A non-tumorigenic mammary epithelial cells. The test is described as follows: MTT assay of MCF10A cells. The class given is cell-based, human. The conditions noted are these: for IC50: Homo sapiens; for Selectivity index: IC50 for MCF 10A divided by IC50 for +SA cell line. How it is done: MCF 10A (ATCC cat # CRL-10317) normal human non-tumorigenic mammary epithelial cells were maintained in serum-free defined medium consisting of Dulbecco's modified Eagle's medium (DMEM)/F12 containing 5% horse serum, 1% penicillin/streptomycin, 0.5 μg/mL hydrocortisone, 100 ng/mL cholera toxin, 10 μg/mL insulin, and 20 ng/mL epidermal growth factor (rhEGF). For subculturing, cells were rinsed twice with sterile Ca2+ and Mg2+-free phosphate buffered saline (PBS) and incubated in 0.25% trypsin containing 0.025% EDTA in PBS for 5 min at 37° C. The released cells were centrifuged, re-suspended in fresh media and counted using a hemocytometer. For testing, MCF 10A cells were plated at a density of 10×10^4 cells/well. A stock solution of the compounds was prepared in DMSO. DMSO was added to all treatment media such that the final DMSO concentration was the same in all treatment groups within a given experiment and was always less than 0.1%. The compounds were fed in serum free media. MCF10A mammary epithelial cell's viable number was determined by MTT colorimetric assay. […] IC50 values were calculated by non-linear regression using statistical software. The selectivity index indicated in the table represents the IC50 value for the MCF 10A cell line divided by the IC50 value for the +SA cell line.
(Tetrazolium dyes change colour on reduction, which living cells bring about.)

The subject of test [3] is MDA-MB-231 human breast cancer cell line. Briefly: MTT assay of MDA-MB-231 cells. The class given is cell-based. The conditions noted are these: Homo sapiens, media containing 5% fetal bovine serum. How it is done:
(§1) MDA-MB-231 and MCF7 cells were plated at a density of 8×10^3 cells/well and 10^4 cells/well in 96-well culture plates, respectively. The compounds were fed in serum free media containing 5% and 1% fetal bovine serum for MDA-MB-231 and MCF7 cells, respectively.

Test [4] has as its system MCF7 human breast cancer cell line. Briefly: MTT assay of MCF7 cells. The class given is cell-based. The conditions noted are these: Homo sapiens, media containing 1% fetal bovine serum. How it is done:
as §1

Where [5] appears, read: MCF 10A non-tumorigenic cells, Table I, read-out: IC50 MCF 10A.
The mark [6] stands for this setting: MCF-10A, MCF10A cells, Table II, non-linear regression, read-out: MCF10A (IC50).

As a reminder, the inhibition is how much of the control response was suppressed. The IC50 is the point on the concentration scale where inhibition reaches its midpoint. Regarding `CC(C)=CCC/C(C)=C/CC/C(C)=C/CC[C@]1(C)CCc2c3c(cc(C)c2O1)OCN(CCO)C3` [Compound 10, 2-((R)-6,8-dimethyl-8-((3E,7E)-4,8,12-trimethyltrideca-3,7,11-trienyl)-9,10-dihydrochromeno[5,6-e][1,3]oxazin-2(1H,3H,8H)-yl)ethanol], in test [1], the inhibition at 5 µM was above 50%. For the same compound, the IC50 is 1.3 µM in test [1], 3.1 µM in test [2] (setting [5]), above 5 µM in test [3] and 6 µM in test [4].

Take `CC(C)=CCC/C(C)=C/CC/C(C)=C/CC[C@]1(C)CCc2c3c(c(C)c(C)c2O1)OCN(CCCO)C3` [Compound 12, 3-((R)-5,6,8-trimethyl-8-((3E,7E)-4,8,12-trimethyltrideca-3,7,11-trienyl)-9,10-dihydrochromeno[5,6-e][1,3]oxazin-2(1H,3H,8H)-yl)propan-1-ol]: the inhibition at 5 µM in test [1] was above 50%. Also, the IC50 in test [1] is 8.1 µM; in test [3] it was 9.6 µM; in test [4] it was above 20 µM.

`CC(C)=CCC/C(C)=C/CC/C(C)=C/CC[C@]1(C)CCc2c3c(cc(C)c2O1)OCN(CCCCCO)C3` [Compound 18, 5-((R)-6,8-dimethyl-8-((3E,7E)-4,8,12-trimethyltrideca-3,7,11-trienyl)-9,10-dihydrochromeno[5,6-e][1,3]oxazin-2(1H,3H,8H)-yl)pentan-1-ol]: the IC50 in test [2] (setting [6]) came to 4.6 µM; in test [2] (setting [5]), 4.6 µM; in test [3] it was 9 µM; in test [4], 9.1 µM. In test [2], this compound displayed a Selectivity index of 6.57.

In the case of `COc1ccc(CCN2COc3cc(C)c4c(c3C2)CC[C@@](C)(CC/C=C(\C)CC/C=C(\C)CCC=C(C)C)O4)cc1OC` [Compound 24, (R)-2-(3,4-dimethoxyphenethyl)-6,8-dimethyl-8-((3E,7E)-4,8,12-trimethyltrideca-3,7,11-trienyl)-1,2,3,8,9,10-hexahydrochromeno[5,6-e][1,3]oxazine], in test [1], the inhibition at 5 µM is above 50%.

In turn, `CC(C)=CCC/C(C)=C/CC/C(C)=C/CC[C@]1(C)CCc2c3c(cc(C)c2O1)OCN(CCc1ccc(O)cc1)C3` [Compound 27, 4-(2-((R)-6,8-dimethyl-8-((3E,7E)-4,8,12-trimethyltrideca-3,7,11-trienyl)-9,10-dihydrochromeno[5,6-e][1,3]oxazin-2(1H,3H,8H)-yl)ethyl)phenol] displayed an inhibition at 5 µM in test [1] above 50%. The IC50 is 2.4 µM in test [1]; 1.9 µM in test [2] (setting [6]); 1.9 µM in test [2] (setting [5]); above 5 µM in test [3]; 18.2 µM in test [4]. The compound further yielded a Selectivity index in test [2] of 2.09.

Take `CC(C)=CCC/C(C)=C/CC/C(C)=C/CC[C@]1(C)CCc2c3c(c(C)c(C)c2O1)OCN(CCCCO)C3` [Compound 35, 4-((R)-5,6,8-trimethyl-8-((3E,7E)-4,8,12-trimethyltrideca-3,7,11-trienyl)-9,10-dihydrochromeno[5,6-e][1,3]oxazin-2(1H,3H,8H)-yl)butan-1-ol]: the IC50 was 10.7 µM in test [1], 13.8 µM in test [3] and above 20 µM in test [4].

Take `CC(C)=CCC/C(C)=C/CC/C(C)=C/CC[C@]1(C)CCc2c3c(c(C)c(C)c2O1)OCN(CCCCCCO)C3` [Compound 37, 6-((R)-5,6,8-trimethyl-8-((3E,7E)-4,8,12-trimethyltrideca-3,7,11-trienyl)-9,10-dihydrochromeno[5,6-e][1,3]oxazin-2(1H,3H,8H)-yl)hexan-1-ol]: the IC50 in test [3] was above 10 µM; in test [4] it was above 20 µM.

As to `CC(C)=CCC/C(C)=C/CC/C(C)=C/CC[C@]1(C)CCc2c3c(c(C)c(C)c2O1)OCN(CCCCCCCCO)C3` [Compound 39, 8-((R)-5,6,8-trimethyl-8-((3E,7E)-4,8,12-trimethyltrideca-3,7,11-trienyl)-9,10-dihydrochromeno[5,6-e][1,3]oxazin-2(1H,3H,8H)-yl)octan-1-ol], the IC50 is 4.7 µM in test [1]; 2 µM in test [2] (setting [6]); 2 µM in test [2] (setting [5]); above 20 µM in test [3]; above 20 µM in test [4]. The compound also gave a Selectivity index in test [2] of 1.43.

As to `CC(C)=CCC/C(C)=C/CC/C(C)=C/CC[C@]1(C)CCc2c3c(c(C)c(C)c2O1)OCN(CCCCCCCCCCO)C3` [Compound 41, 10-((R)-5,6,8-trimethyl-8-((3E,7E)-4,8,12-trimethyltrideca-3,7,11-trienyl)-9,10-dihydrochromeno[5,6-e][1,3]oxazin-2(1H,3H,8H)-yl)decan-1-ol], the IC50 in test [3] was 15.7 µM; in test [4] it was 19.4 µM.

Take `CC(C)=CCC/C(C)=C/CC/C(C)=C/CC[C@]1(C)CCc2c3c(cc(C)c2O1)OCN(CCCCCCCCCCO)C3` [Compound 42, 10-((R)-6,8-dimethyl-8-((3E,7E)-4,8,12-trimethyltrideca-3,7,11-trienyl)-9,10-dihydrochromeno[5,6-e][1,3]oxazin-2(1H,3H,8H)-yl)decan-1-ol]: the IC50 in test [1] came out at 7.2 µM; in test [3], 12.4 µM; in test [4], 4.6 µM.

For `CC(C)=CCC/C(C)=C/CC/C(C)=C/CC[C@]1(C)CCc2c3c(c(C)c(C)c2O1)OCN(CCCCCCCCCCCCO)C3` [Compound 43, 12-((R)-5,6,8-trimethyl-8-((3E,7E)-4,8,12-trimethyltrideca-3,7,11-trienyl)-9,10-dihydrochromeno[5,6-e][1,3]oxazin-2(1H,3H,8H)-yl)dodecan-1-ol], the IC50 is above 50 µM in test [3] and above 20 µM in test [4].

In the case of `CC(C)=CCC/C(C)=C/CC/C(C)=C/CC[C@]1(C)CCc2c3c(cc(C)c2O1)OCN(CCCCCCCCCCCCO)C3` [Compound 44, 12-((R)-6,8-dimethyl-8-((3E,7E)-4,8,12-trimethyltrideca-3,7,11-trienyl)-9,10-dihydrochromeno[5,6-e][1,3]oxazin-2(1H,3H,8H)-yl)dodecan-1-ol], the concentration for half-maximal inhibition (IC50) in test [3] was above 50 µM; in test [4], above 20 µM.
